From patent publication US5356921A, “Imidazolylphenol compounds, pharmaceutical compositions containing them, and processes for preparing such compounds and compositions” (Gruenenthal GmbH, priority 1992, dated 1994)

What was measured:
5-lipoxygenase [1] = assay: 5-lipoxygenase inhibition in rat blood after oral administration (ex vivo iLTB4-formation); conditions: male Wistar rats, 21.5 mg/kg oral, one hour after administration, A 23 187 15 μg/ml
Protocol: The bioavailability of the compounds of formula I as 5-lipoxygenase inhibitors was characterized by means of an ex vivo biochemical assessment method described by Tateson et al. in Brit. J. Pharmacol. 94, 528 (1988). A compound of formula I was orally administered to male rats (Wistar strain) in a dose of 21.5 mg/kg. One hour after administration the rats after lethal CO2 -narcosis were bled by heart puncture with added heparin as an anticoagulant. Aliquots of the whole blood were incubated at 37° C. for 30 minutes in a water bath with calcium ionophore A 23 187 at an end concentration of 15 μg/ml. At the end of the incubation the samples were centrifuged, and the concentration of immunoreactive LTB4 (iLTB4) in aliquots of […] percent inhibition of ex vivo iLTB4 -formation in whole blood of rats treated with a compound according to the invention, rats orally treated with an appropriate vehicle solution were included in all experiments, and aliquots of their blood were run in parallel and were processed in the same way as described. The average iLTB4 -content of the plasma of the vehicle treated rats served as the 100% value. The activity in percent of the ex vivo iLTB4 -formation after oral administration of a compound according to the invention was calculated by dividing the average value of the iLTB4 -content in ng iLTB4 /ml of the group treated with a compound according to the invention by the average value of the iLTB4 -contents in ng iLTB4 /ml of the vehicle treated group and subsequent multiplication by the factor 100. The respective inhibition in percent was calculated by subtracting the activity in percent from 100.

5-lipoxygenase [2] = molecular target: T1, 5-lipoxygenase (Rattus norvegicus, UniProt P12527); assay: Inhibition of 5-lipoxygenase in RBL-1-cells; type: cell-based; conditions: 20 μM [14C]-arachidonic acid, 20 μM A 23 187
T1 construct: endogenous in cells; host or cells: RBL-1 cells (rat basophilic leukemia), intact
T1 sequence (P12527 1-673): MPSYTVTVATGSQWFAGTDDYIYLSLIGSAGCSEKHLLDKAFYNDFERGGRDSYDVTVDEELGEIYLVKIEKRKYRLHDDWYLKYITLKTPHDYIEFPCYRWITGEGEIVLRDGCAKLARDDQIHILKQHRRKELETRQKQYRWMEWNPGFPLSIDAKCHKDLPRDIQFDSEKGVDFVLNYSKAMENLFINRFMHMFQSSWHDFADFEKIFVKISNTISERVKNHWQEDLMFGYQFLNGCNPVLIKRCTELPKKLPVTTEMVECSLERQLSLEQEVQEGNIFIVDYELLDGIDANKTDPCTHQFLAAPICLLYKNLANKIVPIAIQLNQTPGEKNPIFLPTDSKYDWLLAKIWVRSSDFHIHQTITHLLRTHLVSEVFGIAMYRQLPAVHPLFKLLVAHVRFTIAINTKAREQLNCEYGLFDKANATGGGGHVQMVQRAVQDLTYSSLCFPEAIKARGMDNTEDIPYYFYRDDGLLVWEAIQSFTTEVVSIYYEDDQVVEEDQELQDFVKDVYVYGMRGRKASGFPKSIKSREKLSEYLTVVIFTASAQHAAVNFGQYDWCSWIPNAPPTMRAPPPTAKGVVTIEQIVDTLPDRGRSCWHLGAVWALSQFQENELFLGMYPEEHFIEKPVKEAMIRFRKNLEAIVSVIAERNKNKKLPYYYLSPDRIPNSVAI
Protocol: To determine the inhibition of 5-lipoxygenase rat basophilic leukemia cells (RBL-1-cells) were cultured in vitro, harvested by centrifugation, washed with 50 mM potassium phosphate buffer of pH 7.4, and then suspended in this buffer at 1×10^7 cells/mi. To 1 ml each of this suspension there was added indomethacin (10 μM) and calcium chloride (2 mM), and then the mixture was incubated in the absence or presence of a compound according to the invention in a concentration range of from 0.1 μM to 100 μM for 3 minutes and thereafter with 20 μM of [^14 C]-arachidonic acid and 20 μM of the calcium ionophore A 23 187 for 10 minutes. The reaction was stopped by adding 20 μl of glacial acetic acid, and then the mixture was extracted with ethyl acetate to isolate the metabolites of arachidonic acid formed by the enzymatic action of 5-lipoxygenase. These were separated by thin layer chromatography using a solvent mixture known to be suitable for lipoxygenase products [c.f. Jakschik et al., Biochem. Biophys. Res. Commun. 102, 624 (1981)].
The distribution of the radioactivity among the various metabolites of arachidonic acid was measured using a TLC Linear Analyzer. By correlating the percentages of the amount of the products formed under the action of 5lipoxygenase (5-HETE, isomers of LTB4) in the absence as well as in the presence of different concentrations of compounds according to the invention, the IC50 -values, i.e. the concentrations which cause 50% inhibition of 5-lipoxygenase were determined graphically from semilogarithmic diagrams.

5-lipoxygenase [3] = molecular target: T1, 5-lipoxygenase; assay: Inhibition of cell-free 5-lipoxygenase from RBL-1-cells; type: biochemical; conditions: 10,000×g supernatant of RBL cells; polarographic; arachidonic acid 75 μM
Protocol: Cell-free 5-lipoxygenase was polarographically measured from 10,000×gsupernatant of homogenized rat basophilic leucemia cells [M. Haurand and L. Flohe in Biol. Chem. Hoppe-Seyler 369, 133-142 (1988)]. After preincubation of the 10,000×g supernatant with arachidonic acid (75 μM), ATP (adenosine triphosphate; 4 μM), reduced glutathione (4 mM), and either a compound according to the invention (0.1 to 100 μM) or a solvent (ethanol and/or dimethyl sulfoxide) at 35° C. for 5 minutes, the lipoxygenase reaction was initiated by addition of calcium chloride (3 mM) and recorded simultaneously.
The activity of 5-lipoxygenase was determined from the difference of the pO2 -decrease before and after addition of calcium chloride. The evaluation included the initial rate of the reaction after the lag-phase as well as the duration of the lag-phase. In a concentration range of from 5 to 10 μM the test substances induced lag-phases of 15 seconds.

thromboxane synthase = molecular target: T2, thromboxane synthase (Homo sapiens, UniProt P24557); assay: Inhibition of thromboxane synthase (human thrombocytes); type: cell-based; conditions: for IC50: human thrombocytes, arachidonic acid 3.5 μM, read-out: IC50-Value, inhibition of thromboxane synthase (TXB2 formation); for inhibitory action on thromboxane synthase: in words
T2 construct: human thrombocytes were isolated from platelet-rich plasma; endogenous in cells; host or cells: human thrombocytes (platelets), intact
T2 sequence (P24557 1-533): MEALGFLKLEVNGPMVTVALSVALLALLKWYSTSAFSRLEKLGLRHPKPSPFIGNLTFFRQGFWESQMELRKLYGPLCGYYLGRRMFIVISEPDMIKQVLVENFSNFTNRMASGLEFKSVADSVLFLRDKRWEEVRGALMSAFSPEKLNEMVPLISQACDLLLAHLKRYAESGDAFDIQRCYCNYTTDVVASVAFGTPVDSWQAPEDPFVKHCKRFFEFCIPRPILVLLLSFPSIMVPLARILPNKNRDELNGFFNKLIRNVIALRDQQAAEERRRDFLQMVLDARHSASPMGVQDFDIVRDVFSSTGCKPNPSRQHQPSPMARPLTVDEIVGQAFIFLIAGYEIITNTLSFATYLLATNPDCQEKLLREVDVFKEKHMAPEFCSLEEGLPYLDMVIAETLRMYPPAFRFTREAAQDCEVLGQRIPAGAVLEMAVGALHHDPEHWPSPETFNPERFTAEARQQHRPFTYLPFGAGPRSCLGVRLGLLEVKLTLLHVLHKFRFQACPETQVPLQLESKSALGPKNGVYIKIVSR
Protocol: After addition of prostacyclin, human thrombocytes were isolated from platelet-rich plasma and suspended in Tyrode-Hepes buffer of pH 7.4 at 2×10^8 cells/ml. One ml aliquots of cells were incubated either with a compound according to the invention (0.1 to 100 μM) or a solvent (ethanol and/or dimethyl sulfoxide) at 37° C. for 3 minutes and thereafter with radioactively labelled arachidonic acid (3.5 μM) for 5 minutes. The reaction was stopped and the metabolites of arachidonic acid were extracted by adding methanol, chloroform and formic acid. After evaporation of the chloroform-containing layer to dryness under nitrogen, the residue obtained was resuspended in 50 μl chloroform and analyzed by thin layer chromatography. The distribution of the radioactivity of the different metabolites of arachidonic acid was measured using a TLC linear analyzer.

guinea pigs = assay: Allergen-induced bronchoconstriction in guinea pigs (Konzett-Roessler); type: in vivo, guinea pig; conditions: 60 minutes before ovalbumin
Protocol: The antiasthmatic effect of compounds according to the invention was tested in anesthetized and ventilated guinea pigs. To induce an asthmatic reaction, the animals were passively sensitized by a single intraperitoneal injection of anti-ovalbumin serum. After 48 hours an asthmatic reaction was elicited by intravenous challenge with 0.2 mg/kg of ovalbumin. The immediately resulting bronchoconstriction was measured as an increase in intratracheal pressure. Effects caused by histamine, serotonin and sympathic counterreaction were eliminated by intravenous pretreatment with 2.15 mg/kg of mepyramine, 46.4 μg/kg of propranolol, 4.64 mg/kg of atropine, and 1 mg/kg of methysergide, all administered 5 minutes before challenge. Compounds according to the invention were orally administered 60 minutes before the administration of ovalbumin. The following ED40-values for the inhibition of the bronchoconstriction elicited by ovalbumin, i.e. the effective doses causing a 40% average inhibition of the bronchoconstriction, were determined: […]

5-lipoxygenase [4] = conditions: in words, no test shown; cited from earlier work

Compound | Inhibition of ex vivo iLTB4-formation in whole blood (5-lipoxygenase [1]) | IC50 (5-lipoxygenase [2]) | IC50 (thromboxane synthase) | inhibitory action on thromboxane synthase (thromboxane synthase) | other results
NC(=O)N(O)Cc1ccc(OCCn2ccnc2)cc1 [Comparison, N-hydroxy-N-[4-[2-(1H-imidazol-1-yl)ethoxy]phenylmethyl]urea, reference compound] | 42% | > 100 µM | 4 µM |  | IC50 (5-lipoxygenase [3]): > 100 µM
NC(=O)N(O)Cc1ccc(Oc2ccc(-n3ccnc3)cc2)cc1 [Example 2, Imidazolium Chloride of N-hydroxy-N-[4-[4-(1H-imidazol-1-yl)phenoxy]phenylmethyl]urea] |  | 5 µM |  |  | Inhibition of ex vivo iLTB4-formation in whole blood (5-lipoxygenase [1]; 21.5 mg/kg): 95%; ED50-Value, inhibition of the bronchoconstriction elicited by ovalbumin (guinea pigs; oral, ED40): 5.1 mg/kg
NC(=O)N(O)Cc1ccc(Oc2ccc(-n3ccnc3)cc2)s1 [Example 4, N-hydroxy-N-[5-[4-(1H-imidazol-1-yl)phenoxy]thien-2-yl-methyl]urea] | 93% | 3 µM |  |  | ED40 (guinea pigs; Cavia porcellus, po, 1 h, read-out: ED40-Value, inhibition of the bronchoconstriction elicited by ovalbumin): 6.3 mg/kg
NC(=O)N(O)Cc1cccc(Oc2ccc(-n3ccnc3)cc2)c1 [Example 5, N-hydroxy-N-[3-[4-(1H-imidazol-1-yl)phenoxy]phenylmethyl]urea] |  | 6 µM | 2.5 µM | same inhibitory potency as the hydrochloride of the imidazolylethoxybenzoic acid UK 37 248 | IC50 (5-lipoxygenase [3]): 2 µM
NC(=O)N(O)Cc1ccc(Oc2ccc(-n3ccnc3)cc2)o1 [Example 6, N-hydroxy-N-[5-[4-(1H-imidazol-1-yl)phenoxy]furan-2-yl-methyl]urea] | 84% |  |  |  | 
NC(=O)N(O)Cc1ccc(Oc2cccc(-n3ccnc3)c2)cc1 [Example 10, N-hydroxy-N-[4-[3-(1H-imidazol-1-yl)phenoxy]phenylmethyl]urea] |  | 2 µM |  |  | 
Cl.O=C(O)c1ccc(OCCn2ccnc2)cc1 [UK 37 248, 4-[2-(1H-imidazol-1-yl)-ethoxy]benzoic acid hydrochloride, reference compound] |  |  |  | inhibits the activity of thromboxane synthase | inhibits the activity of 5-lipoxygenase (5-lipoxygenase [4]): not the activity of 5-lipoxygenase
CC(c1cc2ccccc2s1)N(O)C(N)=O (centres unmarked) [Zileuton (A 64 077), reference compound] |  |  | > 100 µM | did not exert an inhibitory action on thromboxane synthase | 
